The results in this text go back to US7973069B2 (PTC Therapeutics, Inc., priority 2004, dated 2011).

The test system of one data set is wild-type poliovirus. The data set is classed as cell-based. To be noted: 1 μM compound; HeLa cells infected with wild-type poliovirus at MOI 0.1, treated one day; CPE score.
For the molecule `COc1ccc(-n2cc(C#N)c3ccc(OC)cc32)cc1` [Compound 4], the “WT-PV CPE (1 μM)*” value is 1.
Still for that read-out and setting: for `CCn1cc(C#N)c2ccc(OC(C)C)cc21` [Compound 10] the value was 2; for `CCn1c(-c2ccc(OC)cc2)c(C#N)c2ccc(OC)cc21` [Compound 19], 1.
Regarding `COc1ccc2c(C#N)c(C)n(-c3ccc4c(c3)OCO4)c2c1` [Compound 24], the “WT-PV CPE (1 μM)*” value is reported as 2.

The data set is the same for the next values; noted with them: 10 μM compound; HeLa cells infected with wild-type poliovirus at MOI 0.1, treated one day; CPE score.
For the molecule `COc1ccc(-n2cc(C#N)c3ccc(OC)cc32)cc1` [Compound 4], the “WT-PV CPE (10 μM)*” value was determined as 2.
On the same count and under the same terms, in the case of `CCn1cc(C#N)c2ccc(OC(C)C)cc21` [Compound 10] it was 2; in that of `CCn1c(-c2ccc(OC)cc2)c(C#N)c2ccc(OC)cc21` [Compound 19], 2; in that of `COc1ccc2c(C#N)c(C)n(-c3ccc4c(c3)OCO4)c2c1` [Compound 24], 2.

The data set is the same for the next values; noted with them: 100 μM compound; HeLa cells infected with wild-type poliovirus at MOI 0.1, treated one day; CPE score.
Turning to `COc1ccc(-n2cc(C#N)c3ccc(OC)cc32)cc1` [Compound 4], the “WT-PV CPE (100 μM)*” value is reported as 3.
Same read-out and setting: for `CCn1cc(C#N)c2ccc(OC(C)C)cc21` [Compound 10] the value was 3; for `CCn1c(-c2ccc(OC)cc2)c(C#N)c2ccc(OC)cc21` [Compound 19], 3.
In the case of `COc1ccc2c(C#N)c(C)n(-c3ccc4c(c3)OCO4)c2c1` [Compound 24], the “WT-PV CPE (100 μM)*” value is listed as 3.

Another data set concerns HCV replicon. The data set is classed as cell-based.
Settings: not given
A word on the IC50: it is the concentration that inhibits the measured activity by half. Low values mean higher potency, high ones lower potency. The molecule `C=CCNC(=O)Nc1ccc(-c2c(C#N)c3cc4c(cc3n2C2CCC2)OCO4)cc1` [Compound 1304] registered an IC50 of 0.5 to 2 µM.
On the same count and under the same terms, for `N#Cc1c(-c2ccc(NC(=O)NC3CCCC3)cc2)n(C2CCC2)c2cc3c(cc12)OCO3` [Compound 1305] the value was less than 0.5 µM.
Molecule `CC(C)NC(=O)Nc1ccc(-c2c(C#N)c3ccc(OCCCN4CCOCC4)cc3n2C2CCC2)cc1` [Compound 1306] yielded an IC50 of 0.5 to 2 µM.
Consider `CC(C)NC(=O)Nc1ccc(-c2c(C#N)c3ccc(OCCCN4CCN(C)CC4)cc3n2C2CCC2)cc1` [Compound 1307], for which the IC50 fell in the range of 0.5 to 2 µM.
In turn, `CC(C)NC(=O)Nc1ccc(-c2c(C#N)c3ccc(OCCCn4ccnc4)cc3n2C2CCC2)cc1` [Compound 1308] had a half-inhibitory concentration (IC50) of less than 0.5 µM.
Still for that read-out and setting: for `CC(C)NC(=O)Nc1ccc(-c2c(C#N)c3ccc(OCCCN4CCCC4)cc3n2C2CCC2)cc1` [Compound 1309] the value was less than 0.5 µM; for `CCOc1ccc2c(C#N)c(-c3ccc(N(CC)CC)cc3)n(C3CC3)c2c1` [Compound 1310], 0.5 to 2 µM; for `CCNc1ccc(-c2c(C#N)c3ccc(OCC)cc3n2C2CC2)cc1` [Compound 1311], less than 0.5 µM.
Molecule `CCOc1ccc2c(C#N)c(-c3ccc(NC(=O)OC(C)C(C)(C)C)cc3)n(C3CCC3)c2c1` (stereo not shown) [Compound 1312] displayed a half-maximal inhibitory concentration (IC50) of less than 0.5 µM.
Still for that read-out and setting: in the case of `CCOc1ccc2c(C#N)c(-c3ccc(NC(=O)OC(C)COC)cc3)n(C3CCC3)c2c1` (stereo not shown) [Compound 1313] it was less than 0.5 µM; in that of `CC(C)NC(=O)Nc1ccc(-c2c(C#N)c3ccc(OCCN4CCOCC4)cc3n2C2CCC2)cc1` [Compound 1315], 0.5 to 2 µM.
On the same count and under the same terms, for `CC(C)NC(=O)Nc1ccc(-c2c(C#N)c3ccc(OCCN4CCC4)cc3n2C2CCC2)cc1` [Compound 1316] the value was less than 0.5 µM.
Take `CC(C)NC(=O)Nc1ccc(-c2c(C#N)c3ccc(OCCNC4CC4)cc3n2C2CCC2)cc1` [Compound 1317]: the IC50 is less than 0.5 µM.
The same measure, in the same setting: in the case of `CC(C)NC(=O)Nc1ccc(-c2c(C#N)c3ccc(OCCn4cncn4)cc3n2C2CCC2)cc1` [Compound 1318] it was less than 0.5 µM.
The same measure, in the same setting: for `CC(C)NC(=O)Nc1ccc(-c2c(C#N)c3ccc(OCCN(C)C)cc3n2C2CCC2)cc1` [Compound 1319] the value was less than 0.5 µM; for `CCN(C)CCOc1ccc2c(C#N)c(-c3ccc(NC(=O)NC(C)C)cc3)n(C3CCC3)c2c1` [Compound 1320], less than 0.5 µM; for `COCCN(C)CCOc1ccc2c(C#N)c(-c3ccc(NC(=O)NC(C)C)cc3)n(C3CCC3)c2c1` [Compound 1321], 0.5 to 2 µM.
`CC(C)NC(=O)Nc1ccc(-c2c(C#N)c3ccc(OCCn4ccnc4)cc3n2C2CCC2)cc1` [Compound 1322] yielded an IC50 of less than 0.5 µM.
Still for that read-out and setting: for `CCOc1ccc2c(c1)c(C#N)c(-c1ccc(NC(=O)OC(C)CC)cc1)n2C1CCC1` (stereo not shown) [Compound 1323] the value was less than 0.5 µM; for `CCCOc1ccc2c(C#N)c(-c3ccc(NC(=O)NC(C)CC)cc3)n(C(C)C)c2c1` (stereo not shown) [Compound 1324], less than 0.5 µM; for `CCCOc1ccc2c(C#N)c(-c3ccc(NC(=O)NC4CC4)cc3)n(C(C)C)c2c1` [Compound 1325], less than 0.5 µM.
Same read-out and setting: in the case of `CCCOc1ccc2c(C#N)c(-c3ccc(NC(=O)NC4CCC4)cc3)n(C(C)C)c2c1` [Compound 1326] it was 0.5 to 2 µM.
`CC(OC(=O)Nc1ccc(-c2c(C#N)c3ccc(OCCN(C)C)cc3n2C2CCC2)cc1)C1CC1` (stereo not shown) [Compound 1327] registered an IC50 of less than 0.5 µM.
Molecule `CC(OC(=O)Nc1ccc(-c2c(C#N)c3ccc(OCCn4ccnc4)cc3n2C2CCC2)cc1)C1CC1` (stereo not shown) [Compound 1328] gave an IC50 of less than 0.5 µM.
Take `CC(C)OC(=O)Nc1ccc(-c2c(C#N)c3ccc(Oc4ncccn4)cc3n2C2CCC2)cc1` [Compound 2151]: the IC50 is less than 0.5 µM.
On the same count and under the same terms, in the case of `CCOc1ccc2c(C#N)c(-c3ccc(NC(=O)O[C@H](C)C4CC4)cc3)n(C3CCC3)c2c1` [Compound 2174] it was less than 0.5 µM; in that of `CC(C)n1c(-c2ccc(NC(=O)O[C@H](C)C3CC3)cc2)c(C#N)c2ccc(Oc3ncccn3)cc21` [Compound 2208], less than 0.5 µM; in that of `C[C@@H](OC(=O)Nc1ccc(-c2c(C#N)c3ccc(Oc4cnccn4)cc3n2C2CC2)cc1)C1CC1` [Compound 2322], less than 0.5 µM.
The same measure, in the same setting: for `C[C@@H](OC(=O)Nc1ccc(-c2c(C#N)c3ccc(OCCF)cc3n2C2CCC2)cc1)C1CC1` [Compound 2326] the value was less than 0.5 µM.
Same read-out and setting: in the case of `CC(C)OC(=O)Nc1ccc(-c2c(C#N)c3ccc(Oc4ncccn4)cc3n2C2CCC2)cc1F` [Compound 2336] it was less than 0.5 µM; in that of `C[C@@H](OC(=O)Nc1ccc(-c2cc3ccc(Oc4ncccn4)cc3n2C2CCC2)cc1)C1CC1` [Compound 2341], less than 0.5 µM.
Molecule `CC(C)OC(=O)Nc1ccc(-c2c(C#N)c3ccc(Oc4ncccn4)cc3n2C(C)C)cc1` [Compound 2392] displayed an IC50 of less than 0.5 µM.
Same read-out and setting: for `C[C@@H](OC(=O)Nc1ccc(-c2c(C#N)c3ccc(Oc4ncccn4)cc3n2C2CC2)cc1F)C1CC1` [Compound 2413] the value was less than 0.5 µM.
On to `CC(C)NC(=O)Nc1ccc(-c2c(C#N)c3ccc(-c4ccccn4)cc3n2C2CCC2)cc1` [Compound 2440], for which the IC50 is less than 0.5 µM.
On the same count and under the same terms, in the case of “[4-(3-cyano-1-cyclobutyl-6-cyclopropyl-1H-indol-2-yl)-phenyl]-carbamic acid tert-butyl ester [Compound 2513]” it was 0.5 to 2 µM.

Test system in another data set: not given
Settings: not given
What is called melting point is the temperature of the solid-liquid transition. As to `CCCS(=O)(=O)Nc1ccc(-c2c(C#N)c3ccc(OC(F)F)cc3n2CC)cc1` [Compound 928, Propane-1-sulfonic acid [4-(3-cyano-6-difluoromethoxy-1-ethyl-1H-indoel-2-yl)-phenyl]-amide], the melting point was 206 to 208 °C.
On the same count and under the same terms, for `C[C@@H](OC(=O)Nc1ccc(-c2c(C#N)c3ccc(Oc4ncccn4)cc3n2C2CCC2)cc1)C1CC1` [Compound 2210, (R)-{4-[3-cyano-1-cyclobutyl-6-(pyrimidin-2-yloxy)-1H-indol-2-yl]-phenyl}carbamic acid 1-cyclopropyl-ethyl ester] the value was 194 to 196 °C.
The same measure, in the same setting: in the case of `C[C@@H](OC(=O)Nc1ccc(-c2c(C#N)c3ccc(Oc4ncccn4)cc3n2C2CC2)cc1)C1CC1` [Compound 2217, (R)-{4-[3-cyano-1-cyclopropyl-6-(pyrimidin-2-yloxy)-1H-indol-2-yl]-phenyl}-carbamic acid 1-cyclopropylethyl ester] it was 154 to 156 °C; in that of `CC(C)NS(=O)(=O)Nc1ccc(-c2c(C#N)c3ccc(Oc4ncccn4)cc3n2C2CCC2)cc1` [Compound 2263], 223 to 224 °C; in that of `CC(C)OC(=O)Nc1ccc(-c2c(C#N)c3ccc(Oc4ncccn4)cc3n2C2CCC2)cc1Cl` [Compound 2339, {2-chloro-4-[3-cyano-1-cyclobutyl-6-(pyrimidin-2-yloxy)-1H-indol-2-yl]-phenyl}-carbamic acid isopropyl ester], 165 to 165.5 °C.
The same measure, in the same setting: in the case of `C[C@@H](OC(=O)Nc1ccc(-c2c(C#N)c3ccc(-c4ccccn4)cc3n2C2CCC2)cc1)C1CC1` [Compound 2417, [4-(3-cyano-1-cyclobutyl-6-pyridin-2-yl-1H-indol-2-yl)-phenyl]-carbamic acid 1-cyclopropyl-ethyl ester] it was 118 to 120 °C; in that of `C[C@@H](OC(=O)Nc1ccc(-c2c(C#N)c3ccc(-c4ncccn4)cc3n2C2CCC2)cc1)C1CC1` [Compound 2419, [4-(3-cyano-1-cyclobutyl-6-pyrimidin-2-yl-1H-indol-2-yl)-phenyl]-carbamic acid 1-cyclopropyl-ethyl ester], 212 to 214 °C; in that of `CC(C)Nc1ccc(-c2c(C#N)c3ccc(Oc4ncccn4)cc3n2C2CC2)cc1` [Compound 2434, 1-cyclopropyl-2-(4-isopropylamino-phenyl)-6-(pyrimidin-2-yloxy)-1H-indole-3-carbonitrile], 215 to 217 °C.
